# Source: patent US11882830B2, “Pesticidal mixture comprising a carboxamide compound and a biopesticide” (priority 2015, dated 2024)
# How the values were obtained:
# [1] = system: southern armyworm; assay: Lepidopteran efficacy: neonate southern armyworm via lima bean leaf dip; type: in vivo; conditions: Spodoptera eridania, foliar, 96 h, broflanilide @ 0.0025 ppm, 4 DAT, read-out: Mean % Mortality @ Days after Treatment 4 DAT
# Source text: (§1) Synergism can be described as an interaction where the combined effect of two or more compounds is greater than the sum of the individual effects of each of the compounds.
# (§2) When the observed combined control effect is greater than the expected combined control effect (E), then the combined effect is synergistic.
# (§3) Large leaf lima bean (southern armyworm) and radish (diamondback moth) were dipped in treatment solution and allowed to dry. The leaves were excised and placed individually into square petri dishes containing two filter paper discs moistened with 0.5 ml of reverse osmosis water. One neonate insect per dish (total of 20 dishes per treatment, grouped into 5 dishes per replicate) were infested for the test with southern armyworm. Five insects per dish (total of 5 dishes per treatment) were infested for the test with diamondback moth. The studies were held in an environmental chamber 14 L: 10 D at 30° C. and 70% RH. The number of dead and moribund insects were recorded (moribund was considered dead). Rate rundowns were conducted initially to determine sublethal rates for the combination testing.
# (§4) 5 replications with 5 insects are each conducted per treatment, insects are held singly.
# (§5) Control mortality is less than 15% and standard treatments yielded 100% mortality.
# [2] = system: diamondback moth; assay: Lepidopteran efficacy: neonate diamondback moth via radish leaf dip; type: in vivo; conditions: Plutella xylostella, foliar, 48 h, broflanilide @ 0.01 ppm, 2 DAT, read-out: Mean % Mortality @ Days after Treatment 2 DAT
# Source text: as §1, §2, §3, §4, §5
smiles,measurement,setting,value
CN(C(=O)c1ccccc1)c1cccc(C(=O)Nc2c(Br)cc(C(F)(C(F)(F)F)C(F)(F)F)cc2C(F)(F)F)c1F [broflanilide],mortality at 0.0025 ppm,[1],23.5%
same,mortality at 0.01 ppm,[2],44%
